The target in the test is T1, S1P Receptor 3 (S1PR3) (Mus musculus, UniProt Q9Z0U9).
T1 construct: native receptor / S1PR3-mCherry fusion in cultured mouse DRG neurons
Kind of test: Fura-2 calcium imaging of DRG neurons with S1PR3 knockout control; also S1PR3-dependent tail current inhibition ([…]). It counts as cell-based.

T1 sequence (Q9Z0U9 whole entry, the tested form may be a part): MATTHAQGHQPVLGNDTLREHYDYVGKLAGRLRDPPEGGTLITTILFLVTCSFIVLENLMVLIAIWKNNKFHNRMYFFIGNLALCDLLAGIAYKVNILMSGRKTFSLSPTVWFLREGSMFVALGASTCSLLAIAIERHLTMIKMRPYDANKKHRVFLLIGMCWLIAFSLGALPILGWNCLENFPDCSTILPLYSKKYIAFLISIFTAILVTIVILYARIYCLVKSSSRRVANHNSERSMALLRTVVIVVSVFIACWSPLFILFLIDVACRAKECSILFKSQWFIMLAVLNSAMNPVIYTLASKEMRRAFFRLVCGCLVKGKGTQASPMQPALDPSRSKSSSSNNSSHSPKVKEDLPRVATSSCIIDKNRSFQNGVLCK

With `CCCCCCCCCCCCC/C=C/[C@@H](O)[C@@H](N)COP(=O)(O)O` [S1P, Sphingosine 1-phosphate], the EC50 came to 155 nM.

What is called EC50 is the concentration that produces a half-maximal response.

The record behind these values is paper PMC5896955, “The signaling lipid sphingosine 1-phosphate regulates mechanical pain” (eLife, 2018).
